Experimental data taken from the supplement of paper PMC11061612.

Columns and labels:
Assay in all cases: Bliss excess, mean over the matrix (fraction); higher = more synergy
[1] = system: SNU-175 (Colorectal Carcinoma)
Method in brief: (§1)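 Cell lines grown in DMEM/F12 or RPMI with 10% FBS were plated in 1536-well plates and held 24 hours at 37°C, 5% CO2 before 72 hours of exposure to two-drug dose matrices, with DMSO typically at 0.2%. CellTiter-Glo 2.0 luminescence gave viability, which was converted to inhibition. Vehicle wells were set to 0 and blank wells to 1. Combination Emax is the second-highest inhibition in the matrix, and Bliss excess is the observed combination effect minus the expected EA + EB − EA·EB, where EA and EB are the single-agent effects.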

[2] = system: NCI-H1755 (Lung Adenocarcinoma)
Method in brief: as §1

[3] = system: NCI-H1623 (Lung Adenocarcinoma)
Method in brief: as §1

[4] = system: EB-3 (Burkitt's Lymphoma)
Method in brief: as §1

[5] = system: PANC-02-03 (Pancreatic Carcinoma)
Method in brief: as §1

[6] = system: Caov-3 (Ovarian Carcinoma)
Method in brief: as §1

[7] = system: BALL-1 (B-Lymphoblastic Leukemia)
Method in brief: as §1

[8] = system: HuO-3N1 (Osteosarcoma)
Method in brief: as §1

[9] = system: SW684 (Other Solid Carcinomas)
Method in brief: as §1

[10] = system: LAMA-84 (Chronic Myelogenous Leukemia)
Method in brief: as §1

[11] = system: CML-T1 (Chronic Myelogenous Leukemia)
Method in brief: as §1

[12] = system: OV-90 (Ovarian Carcinoma)
Method in brief: as §1

[13] = system: RERF-LC-KJ (Lung Adenocarcinoma)
Method in brief: as §1

[14] = system: Calu-6 (Non-Small Cell Lung Carcinoma)
Method in brief: as §1

[15] = system: LOUCY (T-Lymphoblastic Leukemia)
Method in brief: as §1

[16] = system: NCI-H196 (Small Cell Lung Carcinoma)
Method in brief: as §1

[17] = system: AN3-CA (Endometrial Carcinoma)
Method in brief: as §1

[18] = system: Becker (Low Grade Glioma)
Method in brief: as §1

[19] = system: NCI-H1155 (Non-Small Cell Lung Carcinoma)
Method in brief: as §1

[20] = system: RMG-I (Ovarian Carcinoma)
Method in brief: as §1

SMILES	Bliss excess [1]	Bliss excess [2]	Bliss excess [3]	Bliss excess [4]	Bliss excess [5]	Bliss excess [6]	Bliss excess [7]	Bliss excess [8]	Bliss excess [9]	Bliss excess [10]	Bliss excess [11]	Bliss excess [12]	Bliss excess [13]	Bliss excess [14]	Bliss excess [15]	Bliss excess [16]	Bliss excess [17]	Bliss excess [18]	Bliss excess [19]	Bliss excess [20]
Cc1cc2ncnn2cc1Nc1ncc2c(n1)n(C1CCOCC1)c(=O)n2C [AZD7648] + CN(C)CCCOc1ccc(-c2ccc3ncc4c(c3c2)n(C2CCOCC2)c(=O)n4C)cn1 [AZD0156] (first compound max 10 µM, 7x7, partner max 1 µM)	-0.0021	0.0118	-0.0209	-0.0867	0.0002	-0.0085	-0.0108	-0.0416	-0.056	-0.0024	-0.0092	-0.0374	0.0285	0.0024	0.0007	-0.0173	-0.0224	0.0066	0.0397	-0.0322
CCN(CCO)CCCOc1ccc2c(Nc3cc(CC(=O)Nc4cccc(F)c4)[nH]n3)ncnc2c1 [AZD2811] + C[C@@H]1COCCN1C2=NC(=NC(=C2)C3(CC3)[S@](=N)(=O)C)C4=C5C=CNC5=NC=C4 [AZD6738] (first compound max 1 µM, 7x7, partner max 10 µM)	-0.07	-0.0621	-0.0271	-0.0835	-0.101	-0.0747	0.0288	-0.0218	-0.073	-0.0175	0.0199	-0.0772	-0.0512	-0.0382	-0.0518	-0.0655	-0.0315	-0.0343	-0.0099	-0.0734
C[C@@H]1COCCN1c1cc(C2([S@](C)(=N)=O)CC2)nc(-c2ccnc3[nH]ccc23)n1 [AZD6738] + O=C(c1cc(Cc2n[nH]c(=O)c3ccccc23)ccc1F)N1CCN(C(=O)C2CC2)CC1 [Olaparib] (first compound max 10 µM, 7x7, partner max 10 µM)	0.0311	-0.0131	-0.0325	-0.0955	0.0287	-0.0231	-0.0204	-0.0071	-0.0144	0.0233	-0.0182	0.0053	0.0228	-0.0679	-0.0284	0.0275	0.0208	-0.0077	0.0374	0.0255
Cc1c2c(nn1C)CSCc1cc(n(C)n1)CSc1cc(c3ccccc3c1)OCCCc1c(C(=O)O)n(C)c3c-2c(Cl)ccc13 [AZD5991] + C[C@@H](Nc1cc(F)cc(F)c1)c1cc(C(=O)N(C)C)cc2c(=O)cc(N3CCOCC3)oc12 [AZD8186] (first compound max 1 µM, 7x7, partner max 3 µM)	0.0048	0.0317	-0.0133	-0.0275	-0.0327	0.0338	-0.0163	0.0324	-0.0553	-0.0037	-0.0081	-0.0496	0.0598	-0.0018	-0.0772	-0.0353	0.0606	0.0192	-0.0105	-0.0247
CC1(C)CCC(CN2CCN(c3ccc(C(=O)NS(=O)(=O)c4ccc(NCC5CCOCC5)c([N+](=O)[O-])c4)c(Oc4cnc5[nH]ccc5c4)c3)CC2)=C(c2ccc(Cl)cc2)C1 [Venetoclax] + C[C@@H](Nc1cc(F)cc(F)c1)c1cc(C(=O)N(C)C)cc2c(=O)cc(N3CCOCC3)oc12 [AZD8186] (first compound max 1 µM, 7x7, partner max 3 µM)	-0.0201	0.0229	-0.0215	-0.0366	-0.0527	-0.0548	-0.0008	0.0158	-0.0862	-0.0006	0.0023	-0.0441	-0.0632	-0.0446	0.0146	-0.03	-0.0453	0.0404	-0.026	-0.0274
CN(CCO)CC[C@H](CSc1ccccc1)Nc1ccc(S(=O)(=O)NC(=O)c2ccc(N3CCC([C@@H](O)c4ccccc4-c4ccc(Cl)cc4)CC3)cc2)cc1S(=O)(=O)C(F)(F)F [AZD4320] + C=CCn1c(=O)c2cnc(Nc3ccc(N4CCN(C)CC4)cc3)nc2n1-c1cccc(C(C)(C)O)n1 [AZD1775] (first compound max 1 µM, partner max 1 µM)	-0.0371	-0.0201	0.0318	-0.0269	0.0045	0.0779	0.0065	-0.0135	-0.0416	0.083	-0.0082	0.0909	-0.0076	0.0019	0.002	0.0268	-0.0004	0.0046	0.0675	0.0664
CC1(C)CCC(CN2CCN(c3ccc(C(=O)NS(=O)(=O)c4ccc(NCC5CCOCC5)c([N+](=O)[O-])c4)c(Oc4cnc5[nH]ccc5c4)c3)CC2)=C(c2ccc(Cl)cc2)C1 [Venetoclax] + C1CN(CCC1(C(=O)N[C@@H](CCO)C2=CC=C(C=C2)Cl)N)C3=NC=NC4=C3C=CN4 [Capivasertib] (first compound max 1 µM, 7x7, partner max 3 µM)	-0.06	-0.034	-0.0643	-0.0683	-0.0742	-0.0458	0.0213	-0.0347	-0.0688	-0.0498	-0.0342	-0.0796	-0.0808	-0.0558	0.104	-0.0377	0.0482	0.0046	-0.0482	-0.0823
CCN(CCO)CCCOc1ccc2c(Nc3cc(CC(=O)Nc4cccc(F)c4)[nH]n3)ncnc2c1 [AZD2811] + O=C(c1cc(Cc2n[nH]c(=O)c3ccccc23)ccc1F)N1CCN(C(=O)C2CC2)CC1 [Olaparib] (first compound max 1 µM, 7x7, partner max 10 µM)	-0.0141	0.0146	-0.0526	-0.0307	0.0133	-0.0444	0.147	-0.0185	-0.0219	0.0269	0.029	-0.0026	-0.0471	0.0004	-0.0463	-0.0193	-0.0011	-0.0371	0.0393	-0.0141
CN(C)CCCOc1ccc(-c2ccc3ncc4c(c3c2)n(C2CCOCC2)c(=O)n4C)cn1 [AZD0156] + C=CCn1c(=O)c2cnc(Nc3ccc(N4CCN(C)CC4)cc3)nc2n1-c1cccc(C(C)(C)O)n1 [AZD1775] (first compound max 1 µM, partner max 1 µM)	0.0169	-0.0462	-0.065	-0.0289	-0.026	-0.0434	0.0118	-0.0505	-0.076	-0.037	-0.0271	-0.0335	-0.0193	-0.0479	-0.0123	-0.0791	-0.0041	-0.0409	-0.0213	-0.0545
CN(CCO)CC[C@H](CSc1ccccc1)Nc1ccc(S(=O)(=O)NC(=O)c2ccc(N3CCC([C@@H](O)c4ccccc4-c4ccc(Cl)cc4)CC3)cc2)cc1S(=O)(=O)C(F)(F)F [AZD4320] + C1CN(CCC1(C(=O)N[C@@H](CCO)C2=CC=C(C=C2)Cl)N)C3=NC=NC4=C3C=CN4 [Capivasertib] (first compound max 1 µM, 7x7, partner max 3 µM)	-0.0205	-0.0221	-0.002	-0.0462	-0.0617	-0.0309	0.0012	-0.0109	-0.0619	-0.0418	0.0023	-0.0635	-0.0282	0.0004	0.0753	-0.0297	-0.0186	-0.0355	0.0147	-0.0527
CN(CCO)CC[C@H](CSc1ccccc1)Nc1ccc(S(=O)(=O)NC(=O)c2ccc(N3CCC([C@@H](O)c4ccccc4-c4ccc(Cl)cc4)CC3)cc2)cc1S(=O)(=O)C(F)(F)F [AZD4320] + C[C@@H](Nc1cc(F)cc(F)c1)c1cc(C(=O)N(C)C)cc2c(=O)cc(N3CCOCC3)oc12 [AZD8186] (first compound max 1 µM, 7x7, partner max 3 µM)	-0.0233	0.012	0.0105	0.0368	-0.0465	-0.019	0.0506	0.0557	-0.0356	0.0355	0.0035	-0.0073	0.0703	0.0264	0.0111	0.0427	-0.0339	0.0186	0.075	-0.0066
COc1cccc2c1C(=O)c1c(O)c3c(c(O)c1C2=O)C[C@@](O)(C(=O)CO)C[C@@H]3O[C@H]1C[C@H](N)[C@H](O)[C@H](C)O1 [Doxorubicin] + Cc1cc2ncnn2cc1Nc1ncc2c(n1)n(C1CCOCC1)c(=O)n2C [AZD7648] (first compound max 1 µM, 7x7, partner max 10 µM)	0.0265	0.104	0.0258	-0.0391	0.0001	0.024	0.117	-0.0523	-0.0211	0.121	0.0824	0.0011	0.0113	0.0914	0.0893	-0.0383	-0.0534	0.0406	0.138	-0.0445
CCN(CCO)CCCOc1ccc2c(Nc3cc(CC(=O)Nc4cccc(F)c4)[nH]n3)ncnc2c1 [AZD2811] + C=CCn1c(=O)c2cnc(Nc3ccc(N4CCN(C)CC4)cc3)nc2n1-c1cccc(C(C)(C)O)n1 [AZD1775] (first compound max 1 µM, partner max 1 µM)	-0.0108	-0.0428	0.009	-0.071	-0.0628	-0.0603	0.0612	-0.0504	-0.0454	0.0026	0.0392	0.021	0.0515	-0.0028	-0.019	-0.0371	0.0276	-0.0465	0.0451	-0.0711
CC1(C)CCC(CN2CCN(c3ccc(C(=O)NS(=O)(=O)c4ccc(NCC5CCOCC5)c([N+](=O)[O-])c4)c(Oc4cnc5[nH]ccc5c4)c3)CC2)=C(c2ccc(Cl)cc2)C1 [Venetoclax] + CCN(CCO)CCCOc1ccc2c(Nc3cc(CC(=O)Nc4cccc(F)c4)[nH]n3)ncnc2c1 [AZD2811] (first compound max 1 µM, 7x7, partner max 1 µM)	-0.0552	-0.0135	-0.0165	0.0036	-0.0283	-0.0544	0.0632	0.0175	-0.0043	-0.0036	0.104	-0.0546	-0.0222	0.0331	-0.0278	-0.0463	0.0345	0.0074	0.132	-0.055
